# From ChEMBL document CHEMBL1201862, “PubChem BioAssay data set” (2004)
#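 Exposure lasted 48 hours, with cells grown in 96-well plates and compounds tested at five concentrations. GI50: concentration for 50% inhibition of growth.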 The source made the active and inactive calls. Cut-off read from the data, not from the text of the source: active = GI50 up to about 1.1 µM and inactive = higher.
# Columns and labels:
# Assay in all cases: growth of human tumour cells (NCI), 48 h
# NCI-H522 = system: NCI-H522
# K562 = system: K562
# SK-OV-3 = system: SK-OV-3
# KM12 = system: KM12
# SR = system: SR
# ACHN = system: ACHN
# SK-MEL-28 = system: SK-MEL-28
# SNB-75 = system: SNB-75
# HOP-92 = system: HOP-92
# HT-29 = system: HT-29
# A549 = system: A549
# DMS-114 = system: DMS-114
# COLO 205 = system: COLO 205
# SF-268 = system: SF-268
# EKVX = system: EKVX
# UACC-62 = system: UACC-62
SMILES,GI50 (NCI-H522),GI50 (K562),GI50 (SK-OV-3),GI50 (KM12),GI50 (SR),GI50 (ACHN),GI50 (SK-MEL-28),GI50 (SNB-75),GI50 (HOP-92),GI50 (HT-29),GI50 (A549),GI50 (DMS-114),GI50 (COLO 205),GI50 (SF-268),GI50 (EKVX),GI50 (UACC-62)
[O-][S+]1Nc2cccc(C(F)(F)F)c2S1 (stereo not given),28.1 µM (inactive),31.3 µM (inactive),> 100 µM (inactive),21.4 µM (inactive),25.5 µM (inactive),37.2 µM (inactive),> 100 µM (inactive),29.6 µM (inactive),35.6 µM (inactive),35.7 µM (inactive),34 µM (inactive),20.1 µM (inactive),19.8 µM (inactive),48 µM (inactive),38.8 µM (inactive),27.7 µM (inactive)
COc1c(C(=O)O)oc2c(OC)cccc12,> 100 µM (inactive),> 100 µM (inactive),> 100 µM (inactive),> 100 µM (inactive),> 100 µM (inactive),> 100 µM (inactive),> 100 µM (inactive),29.9 µM (inactive),> 100 µM (inactive),> 100 µM (inactive),> 100 µM (inactive),> 100 µM (inactive),> 100 µM (inactive),> 100 µM (inactive),> 100 µM (inactive),> 100 µM (inactive)
CC1(C)OC(=O)C(=C2CC(c3ccccc3)c3ccccc32)C(=O)O1 (stereo not given),> 100 µM (inactive),> 100 µM (inactive),> 100 µM (inactive),,> 100 µM (inactive),> 100 µM (inactive),> 100 µM (inactive),> 100 µM (inactive),> 100 µM (inactive),> 100 µM (inactive),> 100 µM (inactive),> 100 µM (inactive),> 100 µM (inactive),> 100 µM (inactive),> 100 µM (inactive),
O=C(/C=C/c1ccc(Br)cc1)c1ccc(NCc2nc3ccccc3[nH]2)cc1,3.41 µM (inactive),3.35 µM (inactive),28.4 µM (inactive),2.67 µM (inactive),5.69 µM (inactive),17.5 µM (inactive),18.6 µM (inactive),4.34 µM (inactive),4 µM (inactive),4.65 µM (inactive),5.77 µM (inactive),2.99 µM (inactive),2.53 µM (inactive),8.18 µM (inactive),> 30.2 µM (inactive),7.1 µM (inactive)
COc1cc2cc(OC)c3cc4c(cc3c2c(OC)c1OC)OCO4,18 µM (inactive),9.46 µM (inactive),> 64.9 µM (inactive),14.2 µM (inactive),18.5 µM (inactive),52.5 µM (inactive),> 39.6 µM (inactive),7.55 µM (inactive),> 46 µM (inactive),10.9 µM (inactive),44.6 µM (inactive),35.7 µM (inactive),19.6 µM (inactive),> 51.1 µM (inactive),50.6 µM (inactive),19.3 µM (inactive)
CSC(=S)N/N=C/c1nccc2ccccc12,0.34 µM (active),0.392 µM (active),6.79 µM (inactive),2.68 µM (inactive),0.291 µM (active),1.23 µM (inactive),2.19 µM (inactive),0.522 µM (active),1.37 µM (inactive),0.701 µM (active),1.65 µM (inactive),0.627 µM (active),0.138 µM (active),1.04 µM (active),2.52 µM (inactive),1.29 µM (inactive)
O=C(CCc1ccccc1)NS(=O)(=O)c1ccccc1,> 100 µM (inactive),> 100 µM (inactive),> 100 µM (inactive),> 100 µM (inactive),> 100 µM (inactive),> 100 µM (inactive),> 100 µM (inactive),> 100 µM (inactive),> 100 µM (inactive),> 100 µM (inactive),> 100 µM (inactive),> 100 µM (inactive),> 100 µM (inactive),> 100 µM (inactive),> 100 µM (inactive),> 100 µM (inactive)
